As usually defined, the IC50 is the concentration that gives 50% inhibition.

Like-named read-outs stand apart in the source and are kept apart here. A value given as a limit tells only on which side of the number the result lay.

The target of assay [1] is recombinant human KRAS wild type (SOS1-mediated nucleotide exchange) (Homo sapiens (Human), UniProt P01116). In words: KRAS biochemical assay, BODIPY-GDP exchange TR-FRET (WT-GDP HTRF). (Time-resolved FRET reads energy transfer from a long-lived donor to a nearby acceptor.)
The next assay has as its system SW620 PERK. Description: SW620 PERK assay. Type of assay: cell-based.
A further assay relates to SW620 cells. Description: SW620 3D proliferation assay (CellTiter-Glo). The conditions noted are these: SW620, 3D culture, 7 days, read-out: SW620 CTG IC50. Type of assay: cell-based. The method in brief: (§1)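 Cells were seeded in ultra-low attachment plates (3000 or 1000 cells/well for 96- or 384-well format) in RPMI-1640, 10% FBS, 2 mM L-glutamine and cultured overnight at 37 °C/5% CO2 to form spheroids. Compounds were added by 333-fold dilution from DMSO for 7 days. Viability was read as CellTiter-Glo 3D ATP luminescence, with IC50 from a 4-parameter logistic fit.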
(In general: ATP-based viability assays read luminescence as a measure of living cells.)

The subject of the next assay is H1975 cells. In words: H1975 CTG proliferation assay. Type of assay: cell-based.
Another assay has as its system HPAC cells. Description: HPAC 3D proliferation assay (CellTiter-Glo). It counts as cell-based. The settings on record: 3D culture, 7 days, read-out: HPAC CTG IC50. The method in brief: as §1
A further assay has as its system SW480 cells. Description: SW480 CTG proliferation assay. The conditions noted are these: Homo sapiens. Type of assay: cell-based.
The target in assay [2] is recombinant human mutant KRas G12V (SOS1-mediated nucleotide exchange) (Homo sapiens (Human), UniProt P01116, G12V). Description: KRAS biochemical assay, BODIPY-GDP exchange TR-FRET (G12V-GDP HTRF).
Setting [3] is: Homo sapiens, SW-620, SW620, PERK.
The mark [4] stands for this setting: Homo sapiens, NCI-H1975, H1975, CTG.

Chain of recombinant human KRAS wild type (SOS1-mediated nucleotide exchange) (P01116-2 other isoform, or with tags, fused parts or gaps): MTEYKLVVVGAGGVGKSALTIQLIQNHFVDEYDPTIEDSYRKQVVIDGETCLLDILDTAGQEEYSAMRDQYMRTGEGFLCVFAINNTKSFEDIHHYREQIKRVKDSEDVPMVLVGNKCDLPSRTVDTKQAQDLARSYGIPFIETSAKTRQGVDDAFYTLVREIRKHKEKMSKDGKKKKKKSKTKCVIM
Chain of recombinant human mutant KRas G12V (SOS1-mediated nucleotide exchange) (P01116-2 other isoform, or with tags, fused parts or gaps G12V): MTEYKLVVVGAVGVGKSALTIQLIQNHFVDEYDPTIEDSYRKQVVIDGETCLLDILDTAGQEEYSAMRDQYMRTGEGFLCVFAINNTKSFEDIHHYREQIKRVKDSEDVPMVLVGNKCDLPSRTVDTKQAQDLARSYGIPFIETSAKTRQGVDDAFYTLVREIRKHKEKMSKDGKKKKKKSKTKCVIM

Consider `C#Cc1c(F)ccc2cc(O)cc(-c3nc4c5c(nc(OC[C@@]67CCCN6C[C@H](F)C7)nc5c3F)N([C@H](C)c3cccnc3N)CCO4)c12` [Example 2, 4-(10-((R)-1-(2-aminopyridin-3-yl)ethyl)-4-fluoro-2-(((2R,7aS)-2-fluorotetrahydro-1H-pyrrolizin-7a(5H)-yl)methoxy)-9,10-dihydro-8H-7-oxa-1,3,6,10-tetraazacyclohepta[de]naphthalen-5-yl)-5-ethynyl-6-fluoronaphthalen-2-ol], for which the IC50 in assay [1] was 0.0671 nM; with SW620 PERK (setting [3]), 1.29 nM; in the assay with SW620 cells (Homo sapiens, SW-620, 168 h), 2.41 nM; in the assay on H1975 cells (setting [4]) it was 2.59 nM; in the assay on HPAC cells (Homo sapiens, 168 h) it was 20.8 nM; in the assay on SW480 cells, 2.9 nM. Further, in assay [2], the half-inhibitory concentration (IC50) came to 0.08 nM.

Turning to `C[C@H](c1cccnc1N)N1CCOc2nc(-c3cc(O)cc4ccccc34)c(F)c3nc(OC[C@@]45CCCN4C[C@H](F)C5)nc1c23` [Example 26, 4-(10-((R)-1-(2-aminopyridin-3-yl)ethyl)-4-fluoro-2-(((2R,7aS)-2-fluorotetrahydro-1H-pyrrolizin-7a(5H)-yl)methoxy)-9,10-dihydro-8H-7-oxa-1,3,6,10-tetraazacyclohepta[de]naphthalen-5-yl)naphthalen-2-ol], the IC50 is 0.26 nM in assay [1]; 19.3 nM with SW620 PERK (setting [3]); 32.3 nM in the assay on SW620 cells (Homo sapiens, SW-620, 168 h); 77 nM in the assay with H1975 cells (setting [4]); 416 nM with HPAC cells (Homo sapiens, 168 h); 350 nM in the assay with SW480 cells. Besides, in assay [2], the 50% inhibitory concentration (IC50) is 0.11 nM.

Regarding `Cc1c(F)c(N)c(F)c(-c2nc3c4c(nc(OC[C@@]56CCCN5C[C@H](F)C6)nc4c2Cl)N([C@H](C)c2cccnc2N)CCO3)c1C(F)(F)F` (atropisomer, axis not shown; (aS)) [Example 629a, 3-((R)-1-((R)-5-(3-amino-2,4-difluoro-5-methyl-6-(trifluoromethyl)phenyl)-4-chloro-2-(((2R,7aS)-2-fluorotetrahydro-1H-pyrrolizin-7a(5H)-yl)methoxy)-8,9-dihydro-10H-7-oxa-1,3,6,10-tetraazacyclohepta[de]naphthalen-10-yl)ethyl)pyridin-2-amine], the IC50 turned out to be 0.178 nM in assay [1]; 1.33 nM in the assay on SW620 PERK (setting [3]); 1.71 nM with SW620 cells (Homo sapiens, SW-620, 168 h); 176 nM in the assay on H1975 cells (setting [4]); 15.3 nM in the assay with HPAC cells (Homo sapiens, 168 h); 20 nM in the assay on SW480 cells. Also, in assay [2], the IC50 was determined as 0.069 nM.

On to `Cc1nc(N)cc(-c2nc3c4c(nc(OC[C@@]56CCCN5C[C@]5(CC5(F)F)C6)nc4c2F)N([C@H](C)c2cccnc2N)CCO3)c1C(F)(F)F` [Example 615], for which the IC50 in assay [1] was determined as 0.175 nM; in the assay with SW620 PERK (setting [3]), 2.02 nM; in the assay with SW620 cells (Homo sapiens, SW-620, 168 h) it was 1.92 nM; in the assay with H1975 cells (setting [4]), 951 nM; in the assay on HPAC cells (Homo sapiens, 168 h), 12.3 nM; in the assay with SW480 cells it was 18 nM. The IC50 in assay [2] was found to be 0.14 nM.

Consider `Cc1cc(N)nc(-c2nc3c4c(nc(OC[C@@]56CCCN5C[C@H](F)C6)nc4c2F)N([C@H](C)c2cccnc2N)CCO3)c1C(F)(F)F` [Example 6, 6-(10-((R)-1-(2-aminopyridin-3-yl)ethyl)-4-fluoro-2-(((2R,7aS)-2-fluorotetrahydro-1H-pyrrolizin-7a(5H)-yl)methoxy)-9,10-dihydro-8H-7-oxa-1,3,6,10-tetraazacyclohepta[de]naphthalen-5-yl)-4-methyl-5-(trifluoromethyl)pyridin-2-amine], for which the IC50 in assay [1] came to 0.215 nM; with SW620 PERK (setting [3]), 7.68 nM; in the assay with SW620 cells (Homo sapiens, SW-620, 168 h), 13.4 nM; with H1975 cells (setting [4]), 7.23 nM; in the assay on HPAC cells (Homo sapiens, 168 h), 43.7 nM; with SW480 cells, 120 nM. Besides, the IC50 in assay [2] was found to be 0.21 nM.

As for `Cc1nc(N)cc(-c2nc3c4c(nc(OC[C@@]56CCCN5C[C@H](F)C6)nc4c2F)N([C@H](C)c2cccnc2N)CCO3)c1C(F)(F)F` [Example 14, 4-(10-((R)-1-(2-aminopyridin-3-yl)ethyl)-4-fluoro-2-(((2R,7aS)-2-fluorotetrahydro-1H-pyrrolizin-7a(5H)-yl)methoxy)-9,10-dihydro-8H-7-oxa-1,3,6,10-tetraazacyclohepta[de]naphthalen-5-yl)-6-methyl-5-(trifluoromethyl)pyridin-2-amine], the IC50 is 0.434 nM in assay [1]; 2.65 nM in the assay on SW620 PERK (setting [3]); 13.9 nM with SW620 cells (Homo sapiens, SW-620, 168 h); 116 nM in the assay on H1975 cells (setting [4]); 76 nM in the assay on HPAC cells (Homo sapiens, 168 h); 130 nM in the assay with SW480 cells. The IC50 in assay [2] is 0.17 nM.

`Cc1c(F)c(N)nc(-c2nc3c4c(nc(OC[C@@]56CCCN5C[C@H](F)C6)nc4c2F)N([C@H](C)c2cccnc2N)CCO3)c1C(F)(F)F` [Example 604, 6-(10-((R)-1-(2-aminopyridin-3-yl)ethyl)-4-fluoro-2-(((2R,7aS)-2-fluorotetrahydro-1H-pyrrolizin-7a(5H)-yl)methoxy)-9,10-dihydro-8H-7-oxa-1,3,6,10-tetraazacyclohepta[de]naphthalen-5-yl)-3-fluoro-4-methyl-5-(trifluoromethyl)pyridin-2-amine]: the half-maximal inhibitory concentration (IC50) is 0.225 nM in assay [1]; 2.93 nM with SW620 PERK (setting [3]); 5.33 nM with SW620 cells (Homo sapiens, SW-620, 168 h); 283 nM with H1975 cells (setting [4]); 26.5 nM with HPAC cells (Homo sapiens, 168 h); greater than 200 nM in the assay with SW480 cells. In assay [2], the IC50 came to 0.099 nM.

For `Cc1cc(N)c(Cl)c(-c2nc3c4c(nc(OC[C@@]56CCCN5C[C@H](F)C6)nc4c2F)N([C@H](C)c2cccnc2N)CCO3)c1C(F)(F)F` (single isomer, unassigned) [Example 21b], the IC50 turned out to be 0.07 nM in assay [1]; 0.555 nM in the assay with SW620 PERK (SW620, PERK); 1 nM in the assay on SW620 cells; 2.59 nM with H1975 cells (H1975, CTG); 4.43 nM in the assay on HPAC cells; 2.4 nM with SW480 cells. Further, in assay [2], the IC50 stood at 0.05 nM.

For the compound `Cc1cc(N)c(F)c(-c2nc3c4c(nc(OC[C@@]56CCCN5C[C@H](F)C6)nc4c2F)N([C@H](C)c2cccnc2N)CCO3)c1C(F)(F)F` [Example 15, 3-((1R)-1-(5-(3-amino-2-fluoro-5-methyl-6-(trifluoromethyl)phenyl)-4-fluoro-2-(((2R,7aS)-2-fluorotetrahydro-1H-pyrrolizin-7a(5H)-yl)methoxy)-8,9-dihydro-10H-7-oxa-1,3,6,10-tetraazacyclohepta[de]naphthalen-10-yl)ethyl)pyridin-2-amine], the IC50 in the assay on SW620 PERK (setting [3]) was found to be 2.24 nM; in the assay with SW620 cells (Homo sapiens, SW-620, 168 h) it was 0.74 nM; in the assay on H1975 cells (setting [4]), 2.59 nM; in the assay with HPAC cells (Homo sapiens, 168 h), 8.84 nM; in the assay with SW480 cells, 10 nM.

With `Cc1c(F)c(N)cc(-c2nc3c4c(nc(OC[C@@H]5CC[C@H]6COCCN65)nc4c2F)N([C@H](C)c2cccnc2N)CCO3)c1C(F)(F)F` [Example 16, 3-((R)-1-(5-(5-amino-4-fluoro-3-methyl-2-(trifluoromethyl)phenyl)-4-fluoro-2-(((6S,8aS)-hexahydro-1H-pyrrolo[2,1-c][1,4]oxazin-6-yl)methoxy)-8,9-dihydro-10H-7-oxa-1,3,6,10-tetraazacyclohepta[de]naphthalen-10-yl)ethyl)pyridin-2-amine], the concentration for half-maximal inhibition (IC50) in the assay on SW620 PERK (setting [3]) turned out to be 2.53 nM; in the assay with SW620 cells (Homo sapiens, SW-620, 168 h) it was 3.77 nM; with H1975 cells (setting [4]) it was 31.1 nM; in the assay with HPAC cells (Homo sapiens, 168 h) it was 30.2 nM; in the assay on SW480 cells it was 10 nM.

Turning to `Cc1cc(N)c(F)c(-c2nc3c4c(nc(OC[C@@H]5CC[C@H]6COCCN65)nc4c2F)N([C@H](C)c2cccnc2N)CCO3)c1C(F)(F)F` [Example 22, 3-((1R)-1-(5-(3-amino-2-fluoro-5-methyl-6-(trifluoromethyl)phenyl)-4-fluoro-2-(((6S,8aS)-hexahydro-1H-pyrrolo[2,1-c][1,4]oxazin-6-yl)methoxy)-8,9-dihydro-10H-7-oxa-1,3,6,10-tetraazacyclohepta[de]naphthalen-10-yl)ethyl)pyridin-2-amine], the IC50 in the assay on SW620 PERK (setting [3]) amounted to 6.32 nM; in the assay with SW620 cells (Homo sapiens, SW-620, 168 h), 6.45 nM; in the assay on H1975 cells (setting [4]), 48.7 nM; with HPAC cells (Homo sapiens, 168 h) it was 67 nM; in the assay on SW480 cells, 24 nM.

In the case of `C#Cc1cccc2cc(O)cc(-c3nc4c5c(nc(OCC67CCN6CC(F)(F)C7)nc5c3F)N([C@H](C)c3cccnc3N)CCO4)c12` (stereo partly drawn) [Example 1, 4-(10-((R)-1-(2-aminopyridin-3-yl)ethyl)-2-((3,3-difluoro-1-azabicyclo[3.2.0]heptan-5-yl)methoxy)-4-fluoro-9,10-dihydro-8H-7-oxa-1,3,6,10-tetraazacyclohepta[de]naphthalen-5-yl)-5-ethynyinaphthalen-2-ol], the IC50 with SW620 PERK (setting [3]) is 1.42 nM; in the assay with SW620 cells (Homo sapiens, SW-620, 168 h) it was 7 nM; in the assay with H1975 cells (setting [4]) it was 47.4 nM; in the assay with HPAC cells (Homo sapiens, 168 h), 144 nM; in the assay with SW480 cells it was 26 nM.

Take `C#Cc1cccc2cc(N)cc(-c3nc4c5c(nc(OC[C@@]67CCCN6C[C@H](F)C7)nc5c3F)N([C@H](C)c3cccnc3N)CCO4)c12` [Example 4, 3-((R)-1-(5-(3-amino-8-ethynyinaphthalen-1-yl)-4-fluoro-2-(((2R,7aS)-2-fluorotetrahydro-1H-pyrrolizin-7a(5H)-yl)methoxy)-8,9-dihydro-10H-7-oxa-1,3,6,10-tetraazacyclohepta[de]naphthalen-10-yl)ethyl)pyridin-2-amine]: the IC50 with SW620 PERK (setting [3]) came to 1.07 nM; with SW620 cells (Homo sapiens, SW-620, 168 h) it was 1.26 nM; in the assay with H1975 cells (setting [4]) it was 2.59 nM; in the assay with HPAC cells (Homo sapiens, 168 h) it was 5.72 nM; in the assay on SW480 cells, 2.4 nM.

The record behind these values is patent publication US20240228512A1, “ACYCLIC OXAZEPINE COMPOUNDS COMPRISING A 6-AZA MOIETY AND USES THEREOF” (Genentech, Inc., priority 2022, published 2024).
